For one assay, the system named is HIV-1IIIB. The assay is described as follows: HIV-1 antiviral assay in CEM-SS cells (MTS). It is filed as cell-based. The note with it: positive controls; CEM-SS cells plus HIV-1IIIB.
In a further assay the test system is HUVEC. Put plainly: Endothelial tube formation assay. The note with it: 10 micrograms per ml, 20 hours, combination peptide 1:peptide 2 1.10 mole:0.90 mole.
The test system of a further assay is RAW 264.7 cells. The assay is described as follows: Phagocytosis assay (Fluorescein-labeled Escherichia coli, flow cytometry). As to conditions: 10 micrograms per ml, combination peptide 1 : peptide 2 1.10 mole : 0.90 mole. (In general: A flow cytometer gives signals particle by particle.)
The test system of assay [1] is Primary Human endothelial cells (HUVEC). Put plainly: Endothelial cell migration assay. The note with it: 10 micrograms per ml, 22 hours, combination peptide 1:peptide 2 0.95 mole:1.05 mole.
Experimental: Primary Human endothelial cells (HUVEC) were seeded in insert chambers with 3 micrometer pore size of multi-transwell plate for 6 hours at 37° C. in Endothelial Cell Basal Medium (EBM) supplemented with 0.1% bovine serum albumin. Thereafter, designated concentration of testing peptides—10 micrograms per ml—was added in duplicate wells. The endothelia were allowed to migrate for 22 hours at 37° C., then, migrated cells were fixed and stained with Hoechst 33342 dye. Images of 3 fields per insert were taken and the number of migrated cells per field were quantified using the ImageProPlus software. Data were analyzed for the average number of the migrated cells and standard deviation of six data points for each treatment condition. […] Statistic p values were computed using the Student's t-test.
In the next assay the test system is spleen cells. The assay is described as follows: Th1/Th2 cytokine profiling assay (Ovalbumin-restimulated spleen cells, CBA Kit). The note with it: 10 micrograms per ml; Ovalbumin restimulation; 72 hours.
The next assay relates to HCMV strain AD169. Put plainly: HCMV plaque formation assay in MRC-5 cells. The note with it: 10 micrograms per ml, 7-10 days.
Assay [2] has as its system hepatitis B virus (HBV) ayw strain. Put plainly: HBV assay in HepG2-2.2.15 cells (TaqMan PCR of HBV DNA). The note with it: 10 micrograms per ml, six days. It is filed as cell-based. The text has this:
HepG2-2.2.15 is a stable cell line containing the hepatitis B virus (HBV) ayw strain genome (ATCC Cat. No. CRL-11997). Antiviral compounds blocking any late step of viral replication such as transcription, translation, pregenome encapsidation, reverse transcription, particle assembly and release can be identified and characterized using this cell line. In this assay, an active compound will reduce the production of secreted HBV from cells, measured by utilizing real time quantitative PCR (TaqMan) assay to directly and accurately measure HBV DNA copies.
HepG2-2.2.15 cells were plated in 96-well microtiter plates. After 16-24 hours the confluent monolayer of HepG2-2.2.15 cells was washed and the medium was replaced with complete medium containing test peptides—10 micrograms per ml—in duplicate. […] Six days following the initial administration of the peptides, the cell culture supernatants was collected, treated with pronase and DNAse and then used in a real-time quantitative TaqMan PCR assay. The PCR-amplified HBV DNA was detected in real-time by monitoring increases in fluorescence signals that result from the exonucleolytic degradation of a quenched fluorescence probe molecule that hybridizes to the mplified HBV DNA. […] Antiviral activity was calculated from the reduction in HBV DNA levels (% virus control). […]
For orientation: Real-time PCR tracks product formation cycle by cycle.

Ends that are not written are not given here.

Experimental for RAW 264.7 cells: RAW 264.7 (Mouse leukaemic monocyte macrophage cell line) cells were obtained from ATCC and grown in RPMI 1640 medium containing 10% FBS. Cells were incubated in 12×75 mm tubes at 37° C. with test peptides—10 micrograms per ml—for 30 min prior to adding Fluorescein-labeled Escherichia coli bacteria as the agent to be ingested. After the cells were incubated for additional 60 min at 37° C. and allowed to ingest the Fluorescein-labeled Escherichia coli bacteria, cells were fixed with 1% paraformaldehyde. The samples were then analyzed by flow cytometry to determine the amount of phagocytosis as a function of brightness (the greater the phagocytic activity, the more fluorescence in the macrophage population). Data are reported as % positive and the mean fluorescence intensity (MFI) of positively stained cells.
Text for spleen cells: The Balb/c mice (originated in 1923, it is a popular strain and is used in many different research disciplines. Also classified as an inbred from the production of 20 or more successive brother-sister matings, the Balb/c mouse is albino and small in size) were immunized on Days 1, 15, and 29 with Ovalbumin (Ovalbumin is the main protein found in egg white, commonly used to stimulate an immunological reaction in test animals) in PBS (5 micrograms/injection). On day 50, spleens of the mice were harvested (3 weeks after last boost with Ovalbumin). Cells were cultured (2×10^5/well in triplicate) and incubated with culture medium or test peptides—10 micrograms per ml—for 30 min. Thereafter, additional Ovalbumin was added to the cells at 10 micrograms/ml for in vitro restimulation of the cells. 72 hours later, cell supernatants were harvested and assayed using the Becton Dickinson Mouse Th1/Th2 Cytokine CBA Kit. This kit can be used to measure Interleukin-2 (IL-2), Interleukin-4 (IL-4), Interleukin-5 (IL-5), Interferon-γ (IFN-γ), and Tumor Necrosis Factor-α (TNF-α) protein levels in a single sample. The kit performance has been optimized for analysis of physiologically relevant concentrations (pg/ml levels) of specific cytokine proteins in tissue culture supernatants and serum samples.

`Cc1cn([C@H]2C[C@H](N=[N+]=[N-])[C@@H](CO)O2)c(=O)[nH]c1=O` [AZT]: the “antiviral activity of positive control compounds (HIV-1)” value in the assay with HIV-1IIIB is “expected levels of antiviral activity”.

Take `CC(C)(C)NC(=O)[C@@H]1CN(Cc2cccnc2)CCN1C[C@@H](O)C[C@@H](Cc1ccccc1)C(=O)N[C@H]1c2ccccc2C[C@H]1O` [indinavir]: the “antiviral activity of positive control compounds (HIV-1)” value with HIV-1IIIB is given as “expected levels of antiviral activity”.

Consider “Val-Tyr-Pro-Asn-Gly-Ala-Glu-Asp-Glu-Ser-Ala-Glu-Ala-Phe-Pro-Leu-Glu-Phe-OH (VYPNGAEDESAEAFPLEF-OH) [peptide 2]”, for which the “inhibition of the tube formation of human endothelial cells” value in the assay on HUVEC is recorded as “did not inhibit”. In addition, the “increase on the phagocytic activity of murine macrophages” value with RAW 264.7 cells is on record as 28.6%. Also, the “inhibition of the migration of human endothelial cells” value in assay [1] amounted to 38%. For the same compound, in the assay on spleen cells, the “IFNγ spleen cells; TH1 response (% of control)” value is given as 114.7 % of control, the “IL-2 spleen cells (% of control)” value is 53.9 % of control, the “IL-4 spleen cells; TH2 response (% of control)” value is given as 140.5 % of control and the “IL-5 spleen cells; TH2 response (% of control)” value is listed as 65.5 % of control. The “TNF-a spleen cells; TH1 response (% of control)” value with spleen cells is 118.8 % of control. Also, in the assay with HCMV strain AD169, the “inhibition of HCMV plaque formation as compared to the virus control” value was “did not inhibit”. Also, the “inhibition of HBV replication as compared to the virus control infection” value in assay [2] was 37.6%.

Source of the values: patent US20100204110A1, “USE OF A PEPTIDE AS A THERAPEUTIC AGENT” (priority 2007, published 2010).
